Measurements reported in patent US20230348467A1, “Heteroaryl Derivative, Preparation Method Therefor, And Use Thereof” (Zhejiang Hisun Pharmaceutical Co., Ltd., priority 2020, published 2023).

Columns and labels:
[1] = biological target: recombinant human full-length SHP2 (Homo sapiens (Human), UniProt Q06124); assay: Allosteric inhibition of full-length SHP2 enzyme (DiFMUP fluorescence); format: biochemical; conditions: full-length SHP2 0.5 nM, activating peptide 0.5 uM, DiFMUP substrate
Description: The following method was used to determine the inhibition degrees of the compounds of the present invention on the activity of recombinant human full-length SHP2 in vitro. SHP2 was allosterically activated by the binding of di-tyrosyl-phosphorylated peptide to a Src homologous 2(SH2) domain of SHP2. An activation step of the latter leads to the self-inhibitory interface release of SHP2, and then activates SHP2 protein tyrosine phosphatase (PTP), which might be used for substrate recognition and reaction catalysis.
The experimental process was briefly described as follows: Test compounds were first dissolved in DMSO to prepare storage solutions. […] Then, the compounds to be tested were added in a concentration range of 0.00004-10 uM and incubated at 25° C. for 60 minutes. Then DiFMUP (Thermo, D6567) was added in the reaction and incubated at 25° C. for 30 minutes. After incubation, readings were taken using a microplate reader (BMG) with excitation and emission wavelengths of 340 nm and 450 nm, respectively.

[2] = system: NCI-H23 cells (containing KRAS G12C mutation); assay: Inhibition of NCI-H23 cell proliferation (CellTiter-Glo); format: cell-based; conditions: Homo sapiens, 120 hours culture
Protocol: (§1) The following method was used to determine the effects of the compounds of the present invention on NCI-H23 cell proliferation. NCI-H23 cells (containing KRAS G12C mutation) were purchased from Cell Resource Center of Shanghai Institutes for Biological Sciences, Chinese Academy of Sciences, and cultured in RPMI 1640 mediums containing 10% fetal bovine serum, 100 U penicillin, 100 μg/mL streptomycin and 1 mM Sodium Pyruvate. The activities of the cells were determined by CellTiter-Glo® Luminescent Cell Viability Assay kit (Promega, article number: G7573).
(§2) The experimental method was operated according to the steps in the kit instruction, and was briefly described as follows: test compounds were first dissolved in DMSO to prepare storage solutions of 10 mM, and then diluted in mediums, prepared as test samples. The final concentrations of the test compounds were 10,000 nM to 1.52 nM. The cells in logarithmic phase were inoculated in a 96-well cell culture plate with 1,000 cells per well, after cultured overnight in 5% CO2 incubator at 37° C., the test compounds were added to the incubator to continue the culture for 120 hours. After the culture, 50 μL of CellTiter-Glo detection solution was added to each well, shaken for 5 minutes, and then stood for 10 minutes. Then, a Luminescence mode was used to read the luminescence values of each well of the samples on a microplate reader. Compared with the numerical value of a control group (0.3% DMSO), the percentage inhibition rates of the compounds at each concentration were calculated, and the IC50 values of the compounds inhibiting cell proliferation were obtained by performing nonlinear regression analysis with logarithmic values of the compound concentration—inhibition rate by GraphPad Prism 5 software, which was shown in Table 2.

[3] = system: NCI-H358 cells (containing KRAS G12C mutation); assay: Inhibition of NCI-H358 cell proliferation (CellTiter-Glo); format: cell-based; conditions: Homo sapiens, NCI-H358, 120 h, read-out: IC50(nM)/NCI-H358
Protocol: as §1, with “NCI-H358” for “NCI-H23”
as §2, with “of the” for “of a”, “Table 3.” for “Table 2.”

[4] = Pharmacokinetic test in ICR mice, intragastric (Test Example 4); format: in vivo; conditions: PO
Description: ICR mice were used as test animals, and LC/MS/MS methods was used to determine the drug concentrations at different moments in plasma of mice administered by intragastric injection with the compound 5 and the compound 6 of the present invention, and to study the pharmacokinetic characteristics of the compounds of the present invention in mice. An appropriate amount of drug was weighed, added with an appropriate amount of sodium carboxymethylcellulose (CMC-Na, containing 0.5% Tween 80), vortexed, and ultrasonically prepared into 1 mg/kg suspension. The ICR mice in the intragastric group of each compound to be tested (9 mice in each group) were fasted overnight and then administered by intragastric injection (PO, […], and administration volume of 10 mL/kg), and ate 4 hours after administration. About 0.2 mL of blood was collected via jugular vein before administration and 0.083 hour, 0.25 hour, 0.5 hour, 1 hour, 2 hours, 4 hours, 8 hours and 24 hours after administration, and heparin sodium was used for anticoagulation. The collected blood samples were placed on ice, and plasma was separated by centrifugation (centrifugation condition: 1,500 g, 10 minutes). The collected plasma samples were stored at −40° C. to −20° C. before analysis. LC-MS/MS was used to determine the contents of the compounds to be tested in mouse plasma after intragastric administration.

Chain of recombinant human full-length SHP2 (Q06124 whole entry): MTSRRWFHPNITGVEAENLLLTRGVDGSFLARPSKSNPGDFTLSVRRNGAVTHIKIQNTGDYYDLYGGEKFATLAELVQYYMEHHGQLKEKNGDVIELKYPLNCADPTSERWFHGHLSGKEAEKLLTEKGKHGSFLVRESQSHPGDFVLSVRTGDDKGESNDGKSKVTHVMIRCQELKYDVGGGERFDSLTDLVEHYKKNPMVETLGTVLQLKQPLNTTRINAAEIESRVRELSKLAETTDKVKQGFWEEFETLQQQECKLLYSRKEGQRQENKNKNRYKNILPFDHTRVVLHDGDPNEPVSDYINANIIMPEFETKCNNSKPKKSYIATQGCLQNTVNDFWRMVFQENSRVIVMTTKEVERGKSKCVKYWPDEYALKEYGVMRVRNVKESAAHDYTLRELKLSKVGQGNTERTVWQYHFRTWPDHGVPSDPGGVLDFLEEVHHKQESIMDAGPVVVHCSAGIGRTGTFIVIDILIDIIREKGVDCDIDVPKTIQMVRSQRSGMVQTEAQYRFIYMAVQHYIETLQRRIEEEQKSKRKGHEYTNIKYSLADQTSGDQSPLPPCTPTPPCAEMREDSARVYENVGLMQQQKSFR

Compound	IC50 [1] [nM]	other results
NC(=O)c1nc(N2CCC(N)(CO)CC2)nc2[nH]nc(-c3cccc(Cl)c3Cl)c12 [Example 13, 6-(4-Amino-4-(hydroxymethyl)piperidin-1-yl)-3-(2,3-dichlorophenyl)-1H-pyrazolo[3,4-d]pyrimidine-4-carboxamide]	10	
NC(=O)c1nc(N2CCC(N)(c3ccccn3)CC2)nc2[nH]nc(-c3cccc(Cl)c3Cl)c12 [Example 38, 6-(4-amino-4-(pyridin-2-yl)piperidin-1-yl)-3-(2,3-dichlorophenyl)-1H-pyrazolo[3,4-d]pyrimidine-4-carboxamide]	27	
COc1nccc(-c2n[nH]c3nc(N4CCC(N)(c5ccccc5F)CC4)nc(C(N)=O)c23)c1Cl [Example 32, 6-(4-amino-4-(2-fluorophenyl)piperidin-1-yl)-3-(3-chloro-2-methoxypyridin-4-yl)-1H-pyrazolo[3,4-d]pyrimidine-4-carboxamide]	10	
COc1ccc(C2(N)CCN(c3nc(C(N)=O)c4c(-c5cccc(Cl)c5Cl)n[nH]c4n3)CC2)cc1 [Example 46, 6-(4-amino-4-(4-methoxyphenyl)piperidin-1-yl)-3-(2,3-dichlorophenyl)-1H-pyrazolo[3,4-d]pyrimidine-4-carboxamide]	3	
NC(=O)c1nc(N2CCC(N)(c3ccccc3)CC2)nc2[nH]cc(-c3cccc(Cl)c3Cl)c12 [Example 53, 2-(4-amino-4-phenylpiperidin-1-yl)-5-(2,3-dichlorophenyl)-7H-pyrrolo[2,3-d]pyrimidine-4-carboxamide]	11	
N[C@@H]1c2ccccc2CC12CCN(c1nc(C(=O)O)c3c(-c4cccc(Cl)c4Cl)n[nH]c3n1)CC2 [Example 9, (S)-6-(1-amino-1,3-dihydrospiro[indene-2,4′-piperidin]-1′-yl)-3-(2,3-dichlorophenyl)-1H-pyrazolo[3,4-d]pyrimidine-4-carboxylic acid]	1	IC50 [2]: 13 nM
CC1(N)CCN(c2nc(C(N)=O)c3c(-c4cccc(Br)c4Cl)n[nH]c3n2)CC1 [Example 12, 6-(4-amino-4-methylpiperidin-1-yl)-3-(3-bromo-2-chlorophenyl)-1H-pyrazolo[3,4-d]pyrimidine-4-carboxamide]	8	
NC(=O)c1nc(N2[C@@H]3CC[C@H]2C[C@@H](N)C3)nc2[nH]nc(-c3cccc(Cl)c3Cl)c12 [Example 7, 6-((endo)-3-amino-8-azabicyclo[3.2.1]octan-8-yl)-3-(2,3-dichlorophenyl)-1H-pyrazolo[3,4-d]pyrimidine-4-carboxamide]	14	
NC(=O)c1nc(N2CCC(N)(c3ccccc3)CC2)nc2[nH]nc(-c3cccc(Cl)c3Cl)c12 [Example 6, 6-(4-amino-4-phenylpiperidin-1-yl)-3-(2,3-dichlorophenyl)-1H-pyrazolo[3,4-d]pyrimidine-4-carboxamide]	4	IC50 [3]: 19 nM; IC50 [2]: 61 nM; Pharmacokinetic properties (conclusion in words) [4]: good pharmacokinetic properties; AUC(0-inf) ([4]; mouse, 10 mg/kg per table (method text says 1 mg/kg), plasma, read-out: Area under curve AUC0-∞): 18500 ng·h/mL; Cmax ([4]; mouse, 10 mg/kg per table (method text says 1 mg/kg), plasma, read-out: Blood concentration Cmax): 1190 ng/mL
NC(=O)c1nc(N2CCC(N)(c3c(F)cccc3F)CC2)nc2[nH]nc(-c3cccc(Cl)c3Cl)c12 [Example 11, 6-(4-amino-4-(2,6-difluorophenyl)piperidin-1-yl)-3-(2,3-dichlorophenyl)-1H-pyrazolo[3,4-d]pyrimidine-4-carboxamide]	17	
NC1(c2ccc(Cl)cc2)CCN(c2nc(C(=O)O)c3c(-c4cccc(Cl)c4Cl)n[nH]c3n2)CC1 [Example 24, 6-(4-amino-4-(4-chlorophenyl)piperidin-1-yl)-3-(2,3-dichlorophenyl)-1H-pyrazolo[3,4-d]pyrimidine-4-carboxylic acid]	5	
Cc1nc(N2CCC3(CC2)CO[C@@H](C)[C@H]3N)c(CO)nc1-c1cccc(Cl)c1Cl [RMC-4550, reference compound]		IC50 [3]: 80 nM; IC50 [2]: 240 nM
NC1(c2ccccc2Cl)CCN(c2nc(C(=O)O)c3c(-c4cccc(Cl)c4Cl)n[nH]c3n2)CC1 [Example 23, 6-(4-amino-4-(2-chlorophenyl)piperidin-1-yl)-3-(2,3-dichlorophenyl)-1H-pyrazolo[3,4-d]pyrimidine-4-carboxylic acid]	2	
NC(=O)c1nc(N2CCC(N)CC2)nc2[nH]nc(-c3cccc(Cl)c3Cl)c12 [Example 15, 6-(4-Aminopiperidin-1-yl)-3-(2,3-dichlorophenyl)-1H-pyrazolo[3,4-d]pyrimidine-4-carboxamide]	24	
Cc1cccc(-c2n[nH]c3nc(N4CCC(N)(c5ccccc5)CC4)nc(C(N)=O)c23)c1Cl [Example 29, 6-(4-amino-4-phenylpiperidin-1-yl)-3-(2-chloro-3-methylphenyl)-1H-pyrazolo[3,4-d]pyrimidine-4-carboxamide]	3	
NC(=O)c1nc(N2[C@@H]3CC[C@H]2C[C@H](N)C3)nc2[nH]nc(-c3cccc(Cl)c3Cl)c12 [Example 8, 6-((exo)-3-amino-8-azabicyclo[3.2.1]octan-8-yl)-3-(2,3-dichlorophenyl)-1H-pyrazolo[3,4-d]pyrimidine-4-carboxamide]	5	
CC1(N)CCN(c2nc(C(N)=O)c3c(-c4cccc(Cl)c4Cl)n[nH]c3n2)CC1 [Example 2, 6-(4-amino-4-methylpiperidin-1-yl)-3-(2,3-dichlorophenyl)-1H-pyrazolo[3,4-d]pyrimidine-4-carboxamide]	29	
NC1(c2ccccc2)CCN(c2nc(-c3nnn[nH]3)c3c(-c4cccc(Cl)c4Cl)n[nH]c3n2)CC1 [Example 30, 1-(3-(2,3-dichlorophenyl)-4-(1H-tetrazol-5-yl)-1H-pyrazolo[3,4-d]pyrimidin-6-yl)-4-phenylpiperidin-4-amine]	3	
NC1(c2cccc(Cl)c2)CCN(c2nc(C(=O)O)c3c(-c4cccc(Cl)c4Cl)n[nH]c3n2)CC1 [Example 25, 6-(4-amino-4-(3-chlorophenyl)piperidin-1-yl)-3-(2,3-dichlorophenyl)-1H-pyrazolo[3,4-d]pyrimidine-4-carboxylic acid]	5	
